In ChEMBL document CHEMBL5233271, “Discovering the Mechanisms of Wikstroelide E as a Potential HIV-Latency-Reversing Agent by Transcriptome Profiling” (J Nat Prod, 2021):
Activity calls are given as the source filed them. The rule behind the calls is not given here.

Assays:
[1] = system: Human immunodeficiency virus; experiment: Reactivation of latent HIV in human NH1 cells at 5 uM measured after 24 hrs by luciferase based analysis; type: functional, organism-based
[2] = system: Human immunodeficiency virus; experiment: Reactivation of latent HIV in human NH2 cells at 5 uM measured after 24 hrs by luciferase based analysis; type: functional, organism-based

Question: Which Activity [1] does the source give for `CC(=O)O[C@@]12C[C@@H](C)[C@@]3(O)[C@@H](C=C(CO)C[C@]4(O)C(=O)C(C)=C[C@@H]34)[C@@H]1C2(C)C` here?
Answer: Its Activity is “Active”.

Question: What about the Activity [2] of the same compound?
Answer: Its Activity is “Active”.
